Measurements published in US5206247A, “Spiro(4.5.)decane compounds” (Adir Et Compagnie, priority 1990, dated 1993).

Legend:
human LDLs [1] = assay: Modification of the LDLs by copper sulphate (MDA formation); type: biochemical; settings: for ability to protect human LDLs compared with probucol or vitamin E, copper sulphate: modifications induced by copper sulphate; for IC50: oxidation by copper sulphate, 24 hours, read-out: IC50 Cu^2+ (inhibition of lipid peroxidation of human LDLs, MDA production)
Experimental: Human LDLs are incubated for 24 hours in the presence of copper sulphate (5×10^-5 M or 5×10^-6 M) and in the absence or presence of the test compounds (10^-7 M to 10^-4 M).
After incubation, the peroxidation of the LDLs is evaluated by electrophoresis on agar gel and by the formation of one of the products of lipid peroxidation: malonic dialdehyde (MDA) (Parthasarathy S., Young S. G., Witztum J. L., Pittman R. C., and Steinberg D.; J. Clin. Invest. 77, 641-644, 1986).
The activity of the test compounds is evaluated by calculating the concentrations that reduce the production of MDA by 50% (IC50) compared with control experiments carried out in the absence of test compound.
(§1) Table A lists the IC50 values, which indicate the capacity to inhibit the lipid peroxidation of human LDLs, obtained with a sample of the compounds of the invention and of the reference compounds probucol and vitamin E, in two tests causing the development of the oxidation of the LDLs: by copper sulphate (Cu^2+) or by endothelial cells (EC).

[2] = tested on: LDLs of the Watanabe rabbits; assay: Ex vivo copper sulphate oxidation of LDLs from orally treated Watanabe rabbits (MDA production); type: in vivo; settings: for MDA production: 3 days
Experimental: Watanabe rabbits ([…] hyperlipidaemic rabbits) are used that range in weight from 3 kg to 5 kg. The animals are treated orally with the carrier of the test compounds (control group) or with the test compounds at doses of 10, 50 and 250 mg/kg/day for 3 days.
When the treatment is complete, the LDLs of the animals are prepared by ultracentrifugation and subjected to oxidation with copper sulphate (5×10^-6 M). The lipid peroxidation of the LDLs is evaluated after various periods of incubation with copper sulphate (from 2 to 24 hours) by measuring the formation of MDA.
Table C lists the MDA production values according to the incubation period with copper sulphate of those LDLs originating from the control animals and those originating from the animals treated with the compounds of Examples 1, 3 and 31 at different doses or with probucol.

human LDLs [3] = assay: Modification of the LDLs by endothelial cells (MDA formation); type: cell-based; settings: for ability to protect human LDLs compared with probucol or vitamin E, endothelial cells: modifications induced by endothelial cells; for IC50: oxidation by rabbit aorta endothelial cells, 24 hours, read-out: IC50 EC (inhibition of lipid peroxidation of human LDLs, MDA production); for times more powerful than probucol (endothelial cells): test using endothelial cells
Experimental: Human LDLs are incubated for 24 hours in the presence of rabbit aorta endothelial cells (line RECL B4 supplied by Professor Steinberg, USA) and in the absence or presence of the test compounds (10^-7 M to 10^-4 M).
After incubation, the peroxidation of the LDLs is evaluated by electrophoresis on agar gel and by the formation of one of the products of lipid peroxidation: malonic dialdehyde (MDA) (Steinbrecher U.P., Parthasarathy S, Leake D. S., Witztum J. L., and Steinberg D., Proc. Nat. Acad. Sci. USA 81. 3883-3887, 1984).
The activity of the test compounds is evaluated by calculating the concentrations that reduce the production of MDA by 50% (IC50) compared with the control experiments carried out in the absence of test compound.
as §1

cardiac cells = assay: Oxidative necrosis of cardiac cells induced by hypoxanthine/xanthine oxidase; type: cell-based, new-born rats; settings: for effect on oxidative necrosis of cardiac cells compared with reference compounds: 10^-6 M and 10^-5 M; for activity at 10 µM / activity at 1 µM / activity at 0.1 µM / index of necrosis of cardiac cells: control = 100, means ± sem; for activity at 10 µM / activity at 1 µM / activity at 0.1 µM: read-out: index of necrosis of cardiac cells; for inhibition at 10 µM / inhibition at 1 µM: Cardiomyocyte, read-out: reduction of oxidative necrosis of cardiomyocytes; for index of necrosis of cardiac cells: 240 min
Experimental: Cardiac cells of new-born rats are used between the 5th and 6th days after placing in a culture. Oxidative necrosis is induced by the enzymatic system hypoxanthine (HX, 1 mM) and xanthine oxidase (XO, 10 mU/ml), which produces free radicals. The necrosis is evaluated 4 hours after the addition of XO/HX by the spectrophotometric measurement of the cytosolic α-hydroxybutyrate dehydrogenase (α-HBDH) activity liberated in the supernatant. Two reference molecules (probucol, vitamin E) and 3 molecules representative of the present invention (corresponding to Examples 1, 3 and 4) were tested. The cells are treated with the molecules 16 hours and 1 hour before the beginning of the experiment after renewing the medium. At the beginning of the experiment, the treatment is carried out one last time.
Table B lists the indices of the necrosis of cardiac cells induced by the system hypoxanthine/xanthine oxidase on its own or in the presence of increasing concentrations of the compounds of the invention or of the reference compounds: probucol and vitamin E.
The necrosis index 100 corresponds to a liberation of 43.6±1.0% in 4 hours of the cytosolic content of α-HBDH in the supernatant.
The results are expressed in the form of means ± sem (4≤n≤5, 3 repetitions per experiment).

[4] = 50 mg/kg/day oral, 2 hours incubation with copper sulphate
[5] = 50 mg/kg/day oral, 4 hours incubation with copper sulphate
[6] = 50 mg/kg/day oral, 6 hours incubation with copper sulphate
[7] = 50 mg/kg/day oral, 8 hours incubation with copper sulphate
[8] = 50 mg/kg/day oral, 24 hours incubation with copper sulphate
[9] = 250 mg/kg/day oral, 2 hours incubation with copper sulphate
[10] = 250 mg/kg/day oral, 4 hours incubation with copper sulphate
[11] = 250 mg/kg/day oral, 6 hours incubation with copper sulphate
[12] = 250 mg/kg/day oral, 8 hours incubation with copper sulphate
[13] = 250 mg/kg/day oral, 24 hours incubation with copper sulphate
[14] = oral, peroxidation induced by copper sulphate
[15] = Rattus norvegicus, 4 h, 10^-5 M
[16] = Rattus norvegicus, 4 h, 10^-6 M
[17] = Rattus norvegicus, 4 h, 10^-7 M

Compound | ability to protect human LDLs compared with probucol or vitamin E, copper sulphate (human LDLs [1]) | IC50 (human LDLs [1]) | MDA production [2, 9] | MDA production [2, 10] | MDA production [2, 11] | MDA production [2, 12] | MDA production [2, 13] | ability to protect human LDLs compared with probucol or vitamin E, endothelial cells (human LDLs [3]) | IC50 (human LDLs [3]) | times more powerful than probucol (endothelial cells) (human LDLs [3]) | activity at 10 µM (cardiac cells; [15]) | activity at 1 µM (cardiac cells; [16]) | activity at 0.1 µM (cardiac cells; [17]) | also measured
CC(C)(CCN1CCC2(CC1)CNC(=O)O2)Sc1cc(C(C)(C)C)c(O)c(C(C)(C)C)c1 [Example 31] | greater ability | 800 nM | 0.19 nM/mg proteins | 0.51 nM/mg proteins | 0.16 nM/mg proteins | 0.71 nM/mg proteins | 0.99 nM/mg proteins | greater ability | 20 nM |  |  |  |  | MDA production [2, 4]: 0.33 nM/mg proteins; MDA production [2, 5]: 0.72 nM/mg proteins; MDA production [2, 6]: 1.03 nM/mg proteins; MDA production [2, 7]: 1.04 nM/mg proteins; MDA production [2, 8]: 3.16 nM/mg proteins; dose from which peroxidation of the LDLs is inhibited [2, 14]: ≥ 50 mg/kg/day
Cc1cc(OCCCCCN2CCC3(CC2)CNC(=O)O3)c(C)c(C)c1O [Example 30] |  | 300 nM |  |  |  |  |  |  |  |  |  |  |  | 
Cc1c(C)c2c(c(C)c1O)CCC(C)(CCN1CCC3(CC1)CNC(=O)O3)O2 (stereo not drawn) [Example 33] |  | 300 nM |  |  |  |  |  |  |  |  |  |  |  | 
Cc1c(C)c2c(c(C)c1O)CCC(C)(CCCN1CCC3(CC1)CNC(=O)O3)O2 (stereo not drawn) [Example 34] |  | 300 nM |  |  |  |  |  |  |  |  |  |  |  | 
CC(C)(C)c1cc(OCC(O)CN2CCC3(CC2)CNC(=O)O3)cc(C(C)(C)C)c1O (stereo not drawn) [Example 7] |  | 2000 nM |  |  |  |  |  |  |  |  |  |  |  | 
CC(C)(C)c1cc(OCCCN2CCC3(CC2)CNC(=O)O3)cc(C(C)(C)C)c1O [Example 6] | greater ability | 300 nM |  |  |  |  |  | greater ability | 300 nM |  |  |  |  | 
CC(C)(C)c1cc(SCC(O)CN2CCC3(CC2)CNC(=O)O3)cc(C(C)(C)C)c1O (racemic) [Example 1, (R,S)-8-[3-(3,5-di-tert.-butyl-4-hydroxyphenylthio)-2-hydroxypropyl]-1-oxa-2-oxo-3,8-diazaspiro[4.5]decane] | greater ability |  | 0.2 nM/mg proteins | 1.27 nM/mg proteins | 0 nM/mg proteins | 0 nM/mg proteins | 1.02 nM/mg proteins | greater ability |  | 100 times | 3.8 ± 1.9% | 19.1 ± 7.3% | 42.8 ± 11.3% | dose from which peroxidation of the LDLs is inhibited [2, 14]: ≥ 50 mg/kg/day; effect on oxidative necrosis of cardiac cells compared with reference compounds (cardiac cells): distinctly superior to the reference compounds; inhibition at 0.1 µM (cardiac cells; Rattus norvegicus, 4 h, starting from 10^-7 M, read-out: protective effect on oxidative necrosis of cardiac cells): > 50%; inhibition at 10 µM (cardiac cells; [15]): > 95%; inhibition at 1 µM (cardiac cells; [16]): > 80%
Cc1cc(SCC(O)CN2CCC3(CC2)CNC(=O)O3)c(C)c(C)c1O (stereo not drawn) [Example 32] |  | 300 nM |  |  |  |  |  |  |  | 100 times |  |  |  | 
CC(C)(Sc1cc(C(C)(C)C)c(O)c(C(C)(C)C)c1)Sc1cc(C(C)(C)C)c(O)c(C(C)(C)C)c1 [probucol, reference compound] |  | 3000 nM | 1.85 nM/mg proteins | 3.50 nM/mg proteins | 4.90 nM/mg proteins | 12.26 nM/mg proteins | 23.81 nM/mg proteins |  | 4000 nM |  | 26.6 ± 6.3% | 68.8 ± 3.9% | 103 ± 2% | retardation of peroxidation of the LDLs compared with control animals ([2]; oral treatment of Watanabe rabbits): approximately 2 hours
CC(C)(C)c1cc(SCCCN2CCC3(CC2)CNC(=O)O3)cc(C(C)(C)C)c1O [Example 3] | greater ability | 300 nM | 0.66 nM/mg proteins | 0 nM/mg proteins | 0 nM/mg proteins | 0.69 nM/mg proteins | 0.91 nM/mg proteins | greater ability |  | 100 times | 4.2 ± 2.7% | 12 ± 4.4% | 60.6 ± 17.1% | MDA production ([2]; 10 mg/kg/day oral, 2 hours incubation with copper sulphate): 1.27 nM/mg proteins; MDA production ([2]; 10 mg/kg/day oral, 4 hours incubation with copper sulphate): 0.27 nM/mg proteins; MDA production ([2]; 10 mg/kg/day oral, 6 hours incubation with copper sulphate): 3.29 nM/mg proteins; MDA production ([2]; 10 mg/kg/day oral, 8 hours incubation with copper sulphate): 6.85 nM/mg proteins; MDA production ([2]; 10 mg/kg/day oral, 24 hours incubation with copper sulphate): 22.78 nM/mg proteins; MDA production [2, 4]: 0.16 nM/mg proteins; MDA production [2, 5]: 0 nM/mg proteins; MDA production [2, 6]: 1.06 nM/mg proteins; MDA production [2, 7]: 1.44 nM/mg proteins; MDA production [2, 8]: 7.30 nM/mg proteins; dose from which particularly effective [2, 14]: ≥ 10 mg/kg/day; dose from which peroxidation of the LDLs is inhibited [2, 14]: ≥ 50 mg/kg/day; effect on oxidative necrosis of cardiac cells compared with reference compounds (cardiac cells): distinctly superior to the reference compounds; inhibition at 10 µM (cardiac cells; [15]): > 95%; inhibition at 1 µM (cardiac cells; [16]): > 80%
vitamin E [reference compound] |  | > 100000 nM |  |  |  |  |  |  | 4000 nM |  |  |  |  | index of necrosis of cardiac cells (cardiac cells; 10^-5 M, 10 µM): 61.1 ± 2.5; index of necrosis of cardiac cells (cardiac cells; 10^-6 M, 1 µM): 79.0 ± 7.4; index of necrosis of cardiac cells (cardiac cells; 10^-7 M, 0.1 µM): 83.5 ± 8.0
CC(C)(C)c1cc(SCCCCCN2CCC3(CC2)CNC(=O)O3)cc(C(C)(C)C)c1O [Example 4] | greater ability | 800 nM |  |  |  |  |  | greater ability | 20 nM | 100 times | 2.6 ± 0.7% | 2.1 ± 1% | 79.1 ± 8% | effect on oxidative necrosis of cardiac cells compared with reference compounds (cardiac cells): distinctly superior to the reference compounds; inhibition at 10 µM (cardiac cells; [15]): > 95%; inhibition at 1 µM (cardiac cells; [16]): > 80%
CC(C)(C)c1cc(OCCCCCN2CCC3(CC2)CNC(=O)O3)cc(C(C)(C)C)c1O [Example 5] | greater ability | 700 nM |  |  |  |  |  | greater ability | 800 nM |  |  |  |  | 
